Results as given in PubChem BioAssay AID330 (DTP/NCI, 2004).
Values joined by “and” are separate entries in the source; they are usually repeats but may differ in a detail not shown here. Equal entries are not always repeated. Inconclusive results and toxic doses are left out. The calls were made as follows: active = survival T/C of 150% or more; inactive = T/C below 125% in these data.

Test system: P388 leukemia ip, CD2F1 mice, survival T/C
Assay: NCI In Vivo Anticancer Drug Screen. Data for tumor model P388 Leukemia (intraperitoneal) in CD2F1 (CDF1) mice
Details: endpoint: median survival time, higher = longer survival
Method in brief: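 Mice carrying the transplanted tumor received test compound or vehicle. Survival was recorded in each group, and the value is the treated-group measurement divided by that of the vehicle-treated control group.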

[1] = dose: 25.0 mg/kg/injection, schedule: Q01DX009 (ip), vehicle: other
[2] = dose: 50.0 mg/kg/injection, schedule: Q01DX009 (ip), vehicle: other
[3] = dose: 100.0 mg/kg/injection, schedule: Q01DX009 (ip), vehicle: other
[4] = dose: 200.0 mg/kg/injection, schedule: Q01DX009 (ip), vehicle: other
[5] = dose: 7.5 mg/kg/injection, schedule: Q01DX005 (ip), vehicle: saline with Tween-80
[6] = dose: 15.0 mg/kg/injection, schedule: Q01DX005 (ip), vehicle: saline with Tween-80
[7] = dose: 50.0 mg/kg/injection, schedule: Q01DX005 (ip), vehicle: Klucel (hydroxypropylcellulose) (HPC)
[8] = dose: 120.0 mg/kg/injection, schedule: Q01DX005 (ip), vehicle: saline with Tween-80
[9] = dose: 50.0 mg/kg/injection, schedule: Q01DX009 (ip), vehicle: saline with Tween-80
[10] = dose: 100.0 mg/kg/injection, schedule: Q01DX009 (ip), vehicle: saline with Tween-80
[11] = dose: 200.0 mg/kg/injection, schedule: Q01DX009 (ip), vehicle: saline with Tween-80
[12] = dose: 25.0 mg/kg/injection, schedule: Q01DX009 (ip), vehicle: Klucel (hydroxypropylcellulose) (HPC)
[13] = dose: 50.0 mg/kg/injection, schedule: Q01DX009 (ip), vehicle: Klucel (hydroxypropylcellulose) (HPC)
[14] = dose: 25.0 mg/kg/injection, schedule: Q01DX009 (ip), vehicle: saline with Tween-80
[15] = dose: 100.0 mg/kg/injection, schedule: Q01DX009 (ip), vehicle: Klucel (hydroxypropylcellulose) (HPC)
[16] = dose: 200.0 mg/kg/injection, schedule: Q01DX009 (ip), vehicle: Klucel (hydroxypropylcellulose) (HPC)
[17] = dose: 100.0 mg/kg/injection, schedule: Q01DX005 (ip), vehicle: Klucel (hydroxypropylcellulose) (HPC)
[18] = dose: 200.0 mg/kg/injection, schedule: Q01DX005 (ip), vehicle: Klucel (hydroxypropylcellulose) (HPC)

Measured: T/C

COc1ccccc1/C(=N/Nc1ccccc1)[N+](=O)[O-]
inactive: dose: 50.0 mg/kg/injection, schedule: Q01DX009 (ip), vehicle: saline + Tween-80 + alcohol 106 % of control | dose: 100.0 mg/kg/injection, schedule: Q01DX009 (ip), vehicle: saline + Tween-80 + alcohol 101 % of control | dose: 200.0 mg/kg/injection, schedule: Q01DX009 (ip), vehicle: saline + Tween-80 + alcohol 109 % of control

C#CCCCOCOCCOC
inactive: dose: 60.0 mg/kg/injection, schedule: Q01DX005 (ip), vehicle: saline 101 % of control | dose: 120.0 mg/kg/injection, schedule: Q01DX005 (ip), vehicle: saline 101 % of control

CNc1c2ccccc2nc2ccccc12
inactive: dose: 12.5 mg/kg/injection, schedule: Q04DX002 (ip), vehicle: distilled water + Tween-80 98 % of control | dose: 25.0 mg/kg/injection, schedule: Q04DX002 (ip), vehicle: distilled water + Tween-80 100 % of control

CC(=O)SC(C(=O)O)C(SC(C)=O)C(=O)O (centres undefined)
inactive: [1] 106 % of control | [2] 115 % of control | [3] 102 % of control | [4] 89 % of control

CCCCCCCC/C=C/CC1CCCC(C)N1 (centres undefined) (tested in a mixture with another compound)
inactive: [5] 100 % of control | [6] 100 % of control | dose: 30.0 mg/kg/injection, schedule: Q01DX005 (ip), vehicle: saline with Tween-80 98 % of control and 102 % of control

COc1ccc2c3c([nH]c2c1)[C@H](CC(C)(C)O)N1C(=O)[C@@H]2CCCN2C(=O)[C@]1(O)[C@H]3O
inactive: dose: 6.25 mg/kg/injection, schedule: Q01DX005 (ip), vehicle: Klucel (hydroxypropylcellulose) (HPC) 100 % of control | dose: 12.5 mg/kg/injection, schedule: Q01DX005 (ip), vehicle: Klucel (hydroxypropylcellulose) (HPC) 105 % of control | dose: 25.0 mg/kg/injection, schedule: Q01DX005 (ip), vehicle: Klucel (hydroxypropylcellulose) (HPC) 108 % of control | [7] 116 % of control

Cc1ccc(S(=O)(=O)SSN2CCCCC2)cc1
inactive: dose: 60.0 mg/kg/injection, schedule: Q01DX005 (ip), vehicle: saline with Tween-80 99 % of control | [8] 101 % of control | dose: 240.0 mg/kg/injection, schedule: Q01DX005 (ip), vehicle: saline with Tween-80 99 % of control

O=S(=O)(O)Sc1ncnc2nc[nH]c12
inactive: dose: 50.0 mg/kg/injection, schedule: Q01DX009 (ip), vehicle: saline 108 % of control | dose: 75.0 mg/kg/injection, schedule: Q04DX003 (ip), vehicle: saline 100 % of control | dose: 100.0 mg/kg/injection, schedule: Q01DX009 (ip), vehicle: saline 122 % of control | dose: 150.0 mg/kg/injection, schedule: Q04DX003 (ip), vehicle: saline 98 % of control | dose: 200.0 mg/kg/injection, schedule: Q01DX009 (ip), vehicle: saline 108 % of control | dose: 300.0 mg/kg/injection, schedule: Q04DX003 (ip), vehicle: saline 108 % of control

Nc1nc(N)nc(N)n1 (tested in a mixture with another compound)
inactive: [9] 98 % of control | [10] 92 % of control | [11] 88 % of control

CSC1CC(C)(O)Cc2cc3c(c(O)c21)C(=O)c1c(O)cc2c(c1C3=O)OC1OC2(C)C(O)C(N(C)C)C1O (centres undefined)
inactive: dose: 16.0 mg/kg/injection, schedule: Q01DX009 (ip), vehicle: other 100 % of control

NC(=O)NC1CCCCCCC1
inactive: dose: 100.0 mg/kg/injection, schedule: Q04DX003 (ip), vehicle: saline with Tween-80 100 % of control | dose: 200.0 mg/kg/injection, schedule: Q04DX003 (ip), vehicle: saline with Tween-80 109 % of control | dose: 400.0 mg/kg/injection, schedule: Q04DX003 (ip), vehicle: saline with Tween-80 95 % of control

CCN(CC)CCNc1ccc([N+](=O)[O-])cc1[N+](=O)[O-]
inactive: dose: 6.25 mg/kg/injection, schedule: Q01DX009 (ip), vehicle: Klucel (hydroxypropylcellulose) (HPC) 93 % of control | dose: 12.5 mg/kg/injection, schedule: Q01DX009 (ip), vehicle: Klucel (hydroxypropylcellulose) (HPC) 105 % of control | [12] 114 % of control | [13] 99 % of control

c1ccc2cc(OCC3CO3)c(OCC3CO3)cc2c1 (centres undefined)
active: [8] 151 % of control
inactive: dose: 1.88 mg/kg/injection, schedule: Q01DX005 (ip), vehicle: saline with Tween-80 100 % of control | dose: 3.75 mg/kg/injection, schedule: Q01DX005 (ip), vehicle: saline with Tween-80 107 % of control | [5] 116 % of control | [6] 122 % of control

CCOC(=O)c1ccccc1NC(=O)c1ccccc1
inactive: [14] 93 % of control | [9] 94 % of control | [10] 103 % of control | [11] 111 % of control

O=C1C(CBr)(CBr)CCC12CN=C(Br)C2 (centres undefined)
inactive: dose: 50.0 mg/kg/injection, schedule: Q01DX005 (ip), vehicle: saline with Tween-80 100 % of control | dose: 100.0 mg/kg/injection, schedule: Q01DX005 (ip), vehicle: saline with Tween-80 98 % of control | dose: 200.0 mg/kg/injection, schedule: Q01DX005 (ip), vehicle: saline with Tween-80 100 % of control

CC(=O)O.[Bi]
inactive: dose: 60.0 mg/kg/injection, schedule: Q01DX005 (ip), vehicle: Klucel (hydroxypropylcellulose) (HPC) 97 % of control | dose: 120.0 mg/kg/injection, schedule: Q01DX005 (ip), vehicle: Klucel (hydroxypropylcellulose) (HPC) 96 % of control | dose: 240.0 mg/kg/injection, schedule: Q01DX005 (ip), vehicle: Klucel (hydroxypropylcellulose) (HPC) 99 % of control

CC1(C)N=C(N)N=C(N)N1c1ccc(OCC(=O)N2CCOCC2)cc1
inactive: dose: 50.0 mg/kg/injection, schedule: Q04DX003 (ip), vehicle: saline 100 % of control | dose: 66.0 mg/kg/injection, schedule: Q01DX009 (ip), vehicle: saline sonified 110 % of control | dose: 100.0 mg/kg/injection, schedule: Q01DX009 (ip), vehicle: saline sonified 120 % of control | dose: 100.0 mg/kg/injection, schedule: Q04DX003 (ip), vehicle: saline 95 % of control

O=C(/C=C/c1ccc(Cl)c(Cl)c1)c1cccc(O)c(=O)c1
inactive: [12] 102 % of control | [13] 111 % of control and 118 % of control | [15] 118 % of control | [16] 118 % of control

O=c1oc(-c2ccccc2)nc2c1CCS2
inactive: [7] 93 % of control | [17] 97 % of control | [18] 90 % of control

CC(C)=CCC1(O)C(=O)c2ccccc2C1(O)C(=O)O (centres undefined)
inactive: [12] 101 % of control | [13] 100 % of control | [15] 107 % of control | [16] 99 % of control

COSc1ccccc1
inactive: dose: 100.0 mg/kg/injection, schedule: Q01DX001 (ip), vehicle: Klucel (hydroxypropylcellulose) (HPC) 96 % of control | dose: 200.0 mg/kg/injection, schedule: Q01DX001 (ip), vehicle: Klucel (hydroxypropylcellulose) (HPC) 90 % of control | dose: 400.0 mg/kg/injection, schedule: Q01DX001 (ip), vehicle: Klucel (hydroxypropylcellulose) (HPC) 104 % of control

O=C(Nc1ccc([N+](=O)[O-])cc1)N1CCOCC1
inactive: dose: 12.5 mg/kg/injection, schedule: Q01DX009 (ip), vehicle: saline with Tween-80 97 % of control | [14] 89 % of control | [9] 86 % of control and 92 % of control | [11] 88 % of control

COC(=O)C1CCc2c(cnn2-c2ccccn2)C1 (centres undefined)
inactive: [9] 97 % of control | [10] 101 % of control | [11] 100 % of control

O=[N+]([O-])c1cc2c(cc1C1OCCO1)OCO2
inactive: [1] 102 % of control | [2] 100 % of control | [3] 100 % of control | [4] 98 % of control | dose: 400.0 mg/kg/injection, schedule: Q01DX009 (ip), vehicle: other 98 % of control

COc1ccc2[nH]cc(CC(NC(C)=O)C(=O)O)c2c1 (centres undefined)
inactive: [7] 98 % of control | [17] 104 % of control | [18] 101 % of control

Cc1nc(C(Cl)(Cl)Cl)[nH]c(=O)c1SCCO
inactive: dose: 50.0 mg/kg/injection, schedule: Q01DX005 (ip), vehicle: distilled water + alcohol 101 % of control and 108 % of control | dose: 100.0 mg/kg/injection, schedule: Q01DX005 (ip), vehicle: distilled water + alcohol 105 % of control and 120 % of control | dose: 200.0 mg/kg/injection, schedule: Q01DX005 (ip), vehicle: distilled water + alcohol 114 % of control
